Patent publication US9757380B2 (Southern Research Institute, priority 2007, dated 2017)

Columns and labels:
Assay type in all cases: in vivo, mice
SR475HN (head and neck) = assay: SR475HN head and neck xenograph model, clofarabine combined with radiation; conditions: SR475 head & neck, clofarabine 30 mg/kg/dose, ip, d. 19-30, radiation 2 Gy, d. 19-23, 26-30
Excerpt: (§1) Xenograph models including DU-145 (prostate), NCI-H460 NSCL (lung), SF-295 CNS (glioblastoma), SR475HN (head and neck), PANC-1 (pancreatic), and HCT-116 (colon) are employed to study the effect of compounds according to the instant disclosure combined with radiation therapy. Mice are implanted with tumor fragments subcutaneously from an in vivo passage and the tumors are allowed to grow. Mice with tumors in a designated size range are selected for the studies.

[1] = tested on: SF-295 CNS (glioblastoma); assay: SF-295 CNS glioblastoma xenograph model, clofarabine combined with radiation; conditions: clofarabine 30 mg/kg/dose, ip, d. 8-17, radiation 3 Gy, d. 8, 11, 14, 17
Excerpt: as §1

NCI-H460 NSCL (lung) = assay: NCI-H460 NSCL lung xenograph model, clofarabine combined with radiation; conditions: clofarabine 30 mg/kg/dose, ip, d. 8-17, radiation 3 Gy
Excerpt: as §1

PANC-1 (pancreatic) = assay: PANC-1 pancreatic xenograph model, clofarabine combined with radiation; conditions: clofarabine 30 mg/kg/dose, ip, d. 12-23, radiation 2 Gy
Excerpt: as §1

DU-145 (prostate) = assay: DU-145 prostate xenograph model, clofarabine combined with radiation; conditions: clofarabine 30 mg/kg/dose, ip, d. 13-24, radiation 2 Gy
Excerpt: as §1

HCT-116 (colon) = assay: HCT-116 colon xenograph model, clofarabine combined with radiation; conditions: clofarabine 30mg/kg/dose, ip, d. 13-24, radiation 2 Gy
Excerpt: as §1

tumor models = assay: Xenograph models combined with radiation therapy (overall statement); conditions: compared with clofarabine
Excerpt: as §1

| Compound | Tumor-Free Survivors/Total (SR475HN (head and neck)) | Growth Delay (T-C, days) (SR475HN (head and neck); based on 2 tumor doublings) [days] | Growth Delay (T-C, days) [1] [days] | Tumor-Free Survivors/Total [1] | Tumor-Free Survivors/Total (NCI-H460 NSCL (lung); d. 8, 11, 14, 17) | Growth Delay (T-C, days) (NCI-H460 NSCL (lung); d. 8, 11, 14, 17, based on time to 3 tumor doublings) [days] | Tumor-Free Survivors/Total (PANC-1 (pancreatic); d. 12-16, 19-23) | Growth Delay (T-C, days) (PANC-1 (pancreatic); d. 12-16, 19-23, based on 2 tumor doublings) [days] | Tumor-Free Survivors/Total (DU-145 (prostate); d. 13-17, 20-24) | Growth Delay (T-C, days) (DU-145 (prostate); d. 13-17, 20-24, combination: clofarabine first, radiation 1 hour later) [days] | Tumor-Free Survivors/Total (HCT-116 (colon); d. 13-17, 20-24) | Growth Delay (T-C, days) (HCT-116 (colon); d. 13-17, 20-24, based on 3 tumor doublings) [days] | radiosensitizing capacity (tumor models) |
| --- | --- | --- | --- | --- | --- | --- | --- | --- | --- | --- | --- | --- | --- |
| Nc1nc(Cl)nc2c1ncn2[C@@H]1O[C@H](CO)[C@@H](O)[C@@H]1F [Clofarabine] | 0/6 | 18.2 | -0.8 | 0/6 | 0/6 | 4.6 | 0/6 | 17.2 | 0/6 | 4.3 | 0/6 | 24.2 | – |
| Nc1ccn([C@@H]2O[C@H](CO)[C@@H](O)C2(F)F)c(=O)n1 [gemcitabine] | – | – | – | – | – | – | – | – | – | – | – | – | tracked with the clofarabine results |
